Entries after “also recorded” stand apart in the source; their conditions may differ.
What was measured:
[1] = Release control, different size of applied chewing gum granules (two-module compressed chewing gum tablet); conditions: first layer: NPR with granules of relatively smaller average diameter; second layer: Na2CO3 with granules of relatively larger average diameter
Experimental: (§1) Control of the release was tested for chewing gum tablets comprising two modules with different gum base content and a different active ingredient in each of them.
In this example a gum base content different with respect to size of applied chewing gum granules was investigated.
In the first layer the active ingredient (NPR) was present with chewing gum granules with a relatively smaller average diameter and in the second layer the active ingredient (Na2CO3 pH control agent) was present with chewing gum granules with a relatively larger average diameter.
To ensure that the result of this example was not due to different API in the two layers, the example was further supplemented with a test with the same API in two compositions of different chewing gum granule sizes. Here it was again seen that the release was dependent on the size of the chewing gum granules used in the layers of the gum base content in the chewing gum composition.

[2] = Release control, gum base content different with respect to weight (two-module compressed chewing gum tablet); conditions: first layer: NPR with a large amount of gum base; second layer: Na2CO3 with a small amount of gum base
Experimental: as §1
In this example a gum base content different with respect to weight was investigated. In the first layer the active ingredient (NPR) was present with a large amount of gum base and in the second layer the active ingredient (Na2CO3 pH control agent) was present with a small amount of gum base.
To ensure that the result of this example was not due to different API in the two layers, the example was further supplemented with a test with two different weights of the same API in the compositions in the two layers, where it was again seen that the release was dependent on the weight of the gum base content in the chewing gum composition.

[3] = Release control, gum base content different with respect to composition (two-module compressed chewing gum tablet); conditions: first layer: NPR outside the gum base granules; second layer: Na2CO3 approx. 50 Wt-% outside and approx. 50 Wt-% incorporated in the granules
Experimental: as §1
In this example a gum base content different with respect to composition was investigated. In the first layer the active ingredient (NPR) was added to the chewing gum composition outside the gum base granules and in the second layer the active ingredient (Na2CO3 pH control agent) was added approximately 50 Wt-% to the chewing gum composition outside the gum base granules and approximately 50 Wt-% incorporated in the granules.
To ensure that the result of this example was not due to different API in the two layers, the example was further supplemented with a test with the same amount of a same API incorporated in the granules and added directly to the composition respectively, where it was again seen that the release was dependent on the chewing gum composition

## O=C([O-])[O-].[Na+].[Na+] [Na2CO3]
[1]
  release of active ingredient from the chewing gum tablet: faster than the release of the NPR
[2]
  release of active ingredient from the chewing gum tablet: faster than the release of the NPR
[3]
  release of active ingredient from the chewing gum tablet: fast release of part of the pH control agent; also recorded: slower release of the remaining part of the pH control agent
